In ChEMBL document CHEMBL5543130, “Design, Synthesis, and In Vivo Evaluation of Isosteviol Derivatives as New SIRT3 Activators with Highly Potent Cardioprotective Effects” (J Med Chem, 2024):
Calls of active or inactive are those of the source.

Experiments:
Danio rerio [1] = assay: Cardioprotective activity against doxorubicin-induced Zebrafish cardiomyopathy model at 5 to 15 uM fertilized for 24 hrs followed by compound administration for 72 hrs and measured at 96 hrs post fertilization by inverted fluorescence microscopic analysis; type: functional, organism-based; settings: dose 5-15 µM
Danio rerio [2] = assay: Cardioprotective activity against doxorubicin-induced Zebrafish cardiomyopathy model assessed as survival rate at 15 uM fertilized for 24 hrs followed by compound administration for 72 hrs and measured at 96 hrs post fertilization by inverted fluorescence microscopic analysis; type: functional
Danio rerio [3] = assay: Cardioprotective activity against doxorubicin-induced Zebrafish cardiomyopathy model assessed as survival rate at 5 uM fertilized for 24 hrs followed by compound administration for 72 hrs and measured at 96 hrs post fertilization by inverted fluorescence microscopic analysis; type: functional; settings: Danio rerio
Danio rerio [4] = organism: Danio rerio; assay: Cardioprotective activity against doxorubicin-induced Tg(cmlc2: GFP) Zebrafish assessed as reduction in cTnT mRNA level measured at 72 hrs post fertilization by qPCR analysis; type: functional, organism-based; settings: dose <= 5.0 µM
H9c2 [5] = assay: Upregulation of OPA1 expression in doxorubicin-induced rat H9c2 cells transfected with SIRT3 siRNA at 10 uM by Western blot analysis; type: functional, cell-based
H9c2 [6] = assay: Cardioprotective activity against doxorubicin-induced rat H9c2 cells assessed as downregulation of Bnp mRNA level upto 10 uM qPCR analysis; type: functional, cell-based
Mus musculus [7] = assay: Cardioprotective activity against doxorubicin-induced C57BL/6 mouse cardiomyopathy model assessed as collagen fraction volume at 2.5 mg/kg, ip administered for 7 days by Sirius staining based analysis; type: functional, organism-based; settings: time 7.0 day
H9c2 [8] = assay: Upregulation of SOD2 expression in doxorubicin-induced rat H9c2 cells transfected with SIRT3 siRNA at 10 uM by Western blot analysis; type: functional, cell-based
H9c2 [9] = assay: Cardioprotective activity against doxorubicin-induced rat H9c2 cells assessed as reduction in LDH release upto 10 uM; type: functional, cell-based
H9c2 [10] = assay: Cardioprotective activity against doxorubicin-induced rat H9c2 cells assessed as increase in cell viability at 10 uM incubated for 24 hrs in presence of EX527 by CCK-8 assay; type: functional, cell-based
Mus musculus [11] = assay: Cardioprotective activity against doxorubicin-induced C57BL/6 mouse cardiomyopathy model assessed as reduction in cTnT mRNA level at 2.5 mg/kg, ip administered for 7 days; type: functional, organism-based; settings: time 7.0 day
Danio rerio [12] = assay: Cardioprotective activity against doxorubicin-induced Tg(cmlc2: GFP) Zebrafish assessed as […] at 5 uM measured at 72 hrs post fertilization; type: functional, organism-based
Mus musculus [13] = organism: Mus musculus; assay: Antioxidant activity against doxorubicin-induced C57BL/6 mouse assessed as decrease in MDA level in heart; type: functional, organism-based
Danio rerio [14] = organism: Danio rerio; assay: Cardioprotective activity against doxorubicin-induced Tg(cmlc2: GFP) Zebrafish assessed as reduction in Bnp mRNA level measured at 72 hrs post fertilization by qPCR analysis; type: functional, organism-based
H9c2 [15] = assay: Induction of mitochondrial membrane potential loss in doxorubicin-induced rat H9c2 cells transfected with SIRT3 siRNA incubated for 30 mins in prsence of 3-TYP by JC-1 staining based fluorescence microscopic analysis; type: cell-based
H9c2 [16] = assay: Antioxidant activity against doxorubicin-induced rat H9c2 cells assessed as decrease in MDA level upto 10 uM; type: functional, cell-based
Mus musculus [17] = assay: Cardioprotective activity against doxorubicin-induced C57BL/6 mouse cardiomyopathy model assessed as upregulation of SOD2 level at 2.5 mg/kg, ip administered for 7 days by Western blot analysis; type: functional, organism-based; settings: time 7.0 day
Mus musculus [18] = assay: Cardioprotective activity against doxorubicin-induced C57BL/6 mouse cardiomyopathy model assessed as reduction in Bnp mRNA level at 2.5 mg/kg, ip administered for 7 days; type: functional, organism-based; settings: time 7.0 day
H9c2 [19] = assay: Cardioprotective activity against doxorubicin-induced rat H9c2 cells assessed as downregulation of cTnT mRNA level upto 10 uM qPCR analysis; type: functional, cell-based
H9c2 [20] = assay: Antioxidant activity against doxorubicin-induced rat H9c2 cells assessed as decrease in MDA level upto 10 uM in presence of 3-TYP; type: functional, cell-based
H9c2 [21] = assay: Upregulation of SOD2 expression in rat H9c2 cells upto 10 uM by Western blot analysis; type: functional, cell-based
H9c2 [22] = assay: Cardioprotective activity against doxorubicin-induced rat H9c2 cells assessed as increase in cell viability at 10 uM incubated for 24 hrs by CCK-8 assay; type: functional, cell-based
Danio rerio [23] = organism: Danio rerio; assay: Cardioprotective activity against doxorubicin-induced Tg(cmlc2: GFP) Zebrafish assessed as restoration of normal heart structure at 5 uM measured at 72 hrs post fertilization; type: functional, organism-based
Mus musculus [24] = assay: Cardioprotective activity against doxorubicin-induced C57BL/6 mouse cardiomyopathy model assessed as upregulation of […] level at 2.5 mg/kg, ip administered for 7 days by Western blot analysis; type: functional, organism-based; settings: time 7.0 day
H9c2 [25] = assay: Induction of ROS accumulation in doxorubicin-induced rat H9c2 cells assessed as reduction in fluorescence intensity upto 10 uM incubated for 30 min in presence of 3-TYP by DCFH-DA and PI staining based microscopic analysis; type: functional, cell-based
H9c2 [26] = assay: Cardioprotective activity against doxorubicin-induced rat H9c2 cells assessed as reduction in LDH release upto 10 uM in presence of 3-TYP; type: functional, cell-based
H9c2 [27] = assay: Antioxidant activity against doxorubicin-induced rat H9c2 cells assessed as increase in GSH level upto 10 uM in presence of 3-TYP; type: functional, cell-based
Mus musculus [28] = assay: Cardioprotective activity against doxorubicin-induced C57BL/6 mouse cardiomyopathy model assessed as collagen fraction volume at 2.5 mg/kg, ip administered for 7 days by masson staining based analysis; type: functional, organism-based; settings: time 7.0 day
H9c2 [29] = assay: Antioxidant activity against doxorubicin-induced rat H9c2 cells assessed as increase in GSH level upto 10 uM; type: functional, cell-based
H9c2 [30] = assay: Induction of mitochondrial membrane potential loss in doxorubicin-induced rat H9c2 cells incubated for 30 mins in prsence of 3-TYP by JC-1 staining based fluorescence microscopic analysis; type: cell-based
H9c2 [31] = assay: Induction of mitochondrial membrane potential loss in doxorubicin-induced rat H9c2 cells incubated for 30 mins by JC-1 staining based fluorescence microscopic analysis; type: cell-based; settings: dose 1-10 µM
H9c2 [32] = assay: Induction of ROS accumulation in doxorubicin-induced rat H9c2 cells assessed as reduction in fluorescence intensity incubated for 30 min by DCFH-DA and PI staining based microscopic analysis; type: functional, cell-based; settings: dose 1-10 µM
H9c2 [33] = assay: Cardioprotective activity against doxorubicin-induced rat H9c2 cells assessed as downregulation of Anp mRNA level upto 10 uM qPCR analysis; type: functional, cell-based
H9c2 [34] = assay: Cardioprotective activity against doxorubicin-induced rat H9c2 cells assessed as increase in cell viability incubated for 24 hrs by CCK-8 assay; type: functional, cell-based; settings: dose 1-10 µM
H9c2 [35] = assay: Antioxidant activity against doxorubicin-induced rat H9c2 cells assessed as increase in SOD level upto 10 uM; type: functional, cell-based
H9c2 [36] = assay: Induction of ROS accumulation in doxorubicin-induced rat H9c2 cells transfected with SIRT3 siRNA assessed as reduction in fluorescence intensity at 10 uM incubated for 30 min in presence of 3-TYP by DCFH-DA and PI staining based microscopic analysis; type: functional, cell-based
H9c2 [37] = assay: Antioxidant activity against doxorubicin-induced rat H9c2 cells assessed as increase in SOD level upto 10 uM in presence of 3-TYP; type: functional, cell-based
Danio rerio [38] = organism: Danio rerio; assay: Cardioprotective activity against doxorubicin-induced Tg(cmlc2: GFP) Zebrafish at 15 uM measured at 72 hrs post fertilization; type: functional, organism-based
H9c2 [39] = assay: Cardioprotective activity against doxorubicin-induced rat H9c2 cells assessed as increase in cell viability at 10 uM incubated for 24 hrs in presence of 3-TYP by CCK-8 assay; type: functional, cell-based
H9c2 [40] = assay: Upregulation of OPA1 expression in rat H9c2 cells upto 10 uM by Western blot analysis; type: functional, cell-based
Mus musculus [41] = assay: Cardioprotective activity against doxorubicin-induced C57BL/6 mouse cardiomyopathy model assessed as reduction in Anp mRNA level at 2.5 mg/kg, ip administered for 7 days; type: functional, organism-based; settings: time 7.0 day
Mus musculus [42] = assay: Cardioprotective activity against doxorubicin-induced C57BL/6 mouse cardiomyopathy model assessed as upregulation of SIRT3 level at 2.5 mg/kg, ip administered for 7 days by Western blot analysis; type: functional, organism-based; settings: time 7.0 day
Mus musculus [43] = organism: Mus musculus; assay: Antioxidant activity against doxorubicin-induced C57BL/6 mouse assessed as increase in GSH level in heart; type: functional, organism-based
Danio rerio [44] = organism: Danio rerio; assay: Cardioprotective activity against doxorubicin-induced Tg(cmlc2: GFP) Zebrafish assessed as reduction in Anp mRNA level measured at 72 hrs post fertilization by qPCR analysis; type: functional, organism-based; settings: dose <= 5.0 µM
H9c2 [45] = assay: Upregulation of SIRT3 expression in rat H9c2 cells upto 10 uM by Western blot analysis; type: functional, cell-based
Danio rerio [46] = organism: Danio rerio; assay: Cardioprotective activity against doxorubicin-induced Tg(cmlc2: GFP) Zebrafish at 5 uM measured at 72 hrs post fertilization; type: functional, organism-based

C[C@@]12CC[C@@H]3[C@@](CC[C@H]4[C@@]3(C)CCC[C@@]4(C)C(=O)N3CCN(C(=O)CCC(=O)O)CC3)(CC1=O)C2
active: Activity (Danio rerio [1])
50%: survival at 15 µM (Danio rerio [2]) | survival at 5 µM (Danio rerio [3])

CC(CC(=O)O)C(=O)N1CCN(C(=O)[C@]2(C)CCC[C@@]3(C)[C@@H]4CC[C@@]5(C)C[C@]4(CC[C@@H]32)CC5=O)CC1 (some centres not stated)
active: Activity (Danio rerio [1])

C[C@@]12CC[C@@H]3[C@@](CC[C@H]4[C@@]3(C)CCC[C@@]4(C)C(=O)N3CCNCC3)(CC1=O)C2
active: Activity (Danio rerio [1])

C[C@@]12CC[C@@H]3[C@@](CC[C@H]4[C@@]3(C)CCC[C@@]4(C)C(=O)N3CCN(C(=O)c4ccccc4C(=O)O)CC3)(CC1=O)C2
active: Activity (Danio rerio [4]) Dose-Dependent Effect | Activity (H9c2 [5]) | Activity (H9c2 [6]) | Activity (Mus musculus [7]) | Activity (H9c2 [8]) | Activity (H9c2 [9]) | Activity (Mus musculus [11]) | Activity (Danio rerio [12]) | Activity (Mus musculus [13]) | Activity (Danio rerio [14]) Dose-Dependent Effect | Activity (H9c2 [15]) | Activity (H9c2 [16]) | Activity (Mus musculus [17]) | Activity (Mus musculus [18]) | Activity (H9c2 [19]) | Activity (H9c2 [20]) | Activity (H9c2 [21]) | Activity (H9c2 [22]) | Activity (Danio rerio [23]) | Activity (Mus musculus [24]) | Activity (H9c2 [25]) | Activity (H9c2 [26]) | Activity (H9c2 [27]) | Activity (Mus musculus [28]) | Activity (H9c2 [29]) | Activity (H9c2 [30]) | Activity (H9c2 [31]) Dose-Dependent Effect | Activity (H9c2 [32]) Dose-Dependent Effect | Activity (H9c2 [33]) | Activity (H9c2 [34]) Dose-Dependent Effect | Activity (H9c2 [35]) | Activity (H9c2 [36]) | Activity (H9c2 [37]) | Activity (Danio rerio [38]) | Activity (H9c2 [40]) | Activity (Mus musculus [41]) | Activity (Mus musculus [42]) | Activity (Mus musculus [43]) | Activity (Danio rerio [44]) Dose-Dependent Effect | Activity (H9c2 [45]) | Activity (Danio rerio [46])
inactive: Activity (H9c2 [10]) | Activity (H9c2 [39])

CC(C)(CC(=O)O)C(=O)N1CCN(C(=O)[C@]2(C)CCC[C@@]3(C)[C@@H]4CC[C@@]5(C)C[C@]4(CC[C@@H]32)CC5=O)CC1
active: Activity (Danio rerio [1])

C[C@@]12CC[C@@H]3[C@@](CC[C@H]4[C@@]3(C)CCC[C@@]4(C)C(=O)N3CCN(C(=O)CCCC(=O)O)CC3)(CC1=O)C2
active: Activity (Danio rerio [1])

C[C@@]12CC[C@@H]3[C@@](CC[C@H]4[C@@]3(C)CCC[C@@]4(C)C(=O)N3CCN(C(=O)/C=C/C(=O)O)CC3)(CC1=O)C2
active: Activity (Danio rerio [1])
50%: survival at 15 µM (Danio rerio [2])
